The results in this text go back to patent US8637537B2, “Serine/threonine kinase inhibitors” (Genentech, Inc., priority 2011, dated 2014).

Counter-ions that a name gives are not always drawn. Like-named read-outs stand apart in the source and are kept apart here. Where only a bound is given, the exact number is not on record here.

The experiment deals with T1, human recombinant GST-PAK1-KD protein (Homo sapiens, UniProt Q13153).
T1 construct: residues #249-545 of human PAK1, UniProtKP/Swiss Q13153; His6 (N); made in house; host or cells: Sf9 insect cells, pAcGP67 baculovirus expression vector
T1 sequence (Q13153 249-545): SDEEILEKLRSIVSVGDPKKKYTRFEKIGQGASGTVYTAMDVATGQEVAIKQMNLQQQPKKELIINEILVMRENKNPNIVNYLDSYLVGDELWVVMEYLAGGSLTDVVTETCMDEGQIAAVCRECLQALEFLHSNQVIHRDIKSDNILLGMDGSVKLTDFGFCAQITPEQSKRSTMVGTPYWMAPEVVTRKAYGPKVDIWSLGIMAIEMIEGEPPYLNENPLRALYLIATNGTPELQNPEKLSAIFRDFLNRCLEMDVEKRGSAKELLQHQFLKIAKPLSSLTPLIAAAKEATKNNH
In words: GST-PAK1-KD (kinase domain) biochemical assay, microfluidic mobility shift. Here is the method: Activity of human recombinant GST-PAK1-KD protein was assessed in vitro assay by observing the phosphorylation of a fluorogenic peptide substrate.
The peptide substrate is a consensus sequence based on various PAK1 substrates reported in the scientific literature. […] Incubations were carried out at 22° C. in MatriCal MP101 384-well Metriplates™. […] Following the 30-minute incubation, the assay mixtures were quenched by the addition of 3 μL of 250 mM EDTA, and the substrate and phosphorylated product were separated by capillary electrophoresis and detected using LabChip® Caliper 3000 (Caliper Life Sciences).

[1] abbreviates: Table I, PAK1 Ki class, read-out: Ki.
[2] abbreviates: Table II, PAK1 Ki class, read-out: Ki.

Regarding `CN(Cc1ccc2[nH]cnc2c1Cl)c1ncc(F)c(Nc2cc(C3CC3)[nH]n2)n1` [I-86, N^2-((4-chloro-1H-benzo[d]imidazol-5-yl)methyl)-N^4-(5-cyclopropyl-1H-pyrazol-3-yl)-5-fluoro-N^2-methylpyrimidine-2,4-diamine], the Ki (as a rule, the dissociation constant of the complex between target and ligand, obtained from inhibition or displacement) under setting [1] is < 50 nM.
Consider `Cc1cnc(NCc2ccc3[nH]cnc3c2)nc1Nc1cc(C2CC2)[nH]n1` [I-32, N^2-(1H-Benzoimidazol-5-ylmethyl)-N^4-(5-cyclopropyl-1H-pyrazol-3-yl)-5-methyl-pyrimidine-2,4-diamine], for which, under setting [1], the inhibition constant Ki lay within 250 to 1000 nM.
In the case of `CCN(Cc1ccc2[nH]cnc2c1Cl)c1ncc(F)c(Nc2cc([C@@H]3C[C@@H]3F)[nH]n2)n1` [II-111, N^2-((4-chloro-1H-benzo[d]imidazol-5-yl)methyl)-N^2-ethyl-5-fluoro-N^4-(5-((1S,2S)-2-fluorocyclopropyl)-1H-pyrazol-3-yl)pyrimidine-2,4-diamine], the Ki under setting [2] is < 50 nM.
As for `C[C@H](Nc1ncc(F)c(Nc2cc(C3CC3)[nH]n2)n1)c1cc(F)cc2[nH]ncc12` [II-71, (S)-N^4-(5-cyclopropyl-1H-pyrazol-3-yl)-5-fluoro-N^2-(1-(6-fluoro-1H-indazol-4-yl)ethyl)pyrimidine-2,4-diamine], the Ki under setting [2] is < 50 nM.
In the case of `CN(Cc1ccc2[nH]cnc2c1Cl)c1nccc(Nc2cc(C3CC3)[nH]n2)n1` [I-87, N^2-((4-chloro-1H-benzo[d]imidazol-5-yl)methyl)-N^4-(5-cyclopropyl-1H-pyrazol-3-yl)-N^2-methylpyrimidine-2,4-diamine], the inhibition constant (Ki) is < 50 nM.
With `c1cc(Nc2cc(C3CC3)[nH]n2)nc(NCc2ccc3[nH]ncc3c2)n1` [I-102, N^4-(5-cyclopropyl-1H-pyrazol-3-yl)-N^2-(1H-indazol-5-ylmethyl)pyrimidine-2,4-diamine], the Ki under setting [1] lay within 250 to 1000 nM.
As for `Cc1cc(Nc2cc(C3CC3)[nH]n2)nc(NCc2ccc3[nH]ccc3c2Cl)n1` [I-19, N^2-((4-chloro-1H-indol-5-yl)methyl)-N^4-(5-cyclopropyl-1H-pyrazol-3-yl)-6-methylpyrimidine-2,4-diamine], the inhibition constant Ki under setting [1] was 50 to 250 nM.
Regarding `Fc1cnc(NCc2ccc3[nH]cnc3c2Cl)nc1Nc1cc(C2CC2)[nH]n1` [I-117, N^2-((4-chloro-1H-benzo[d]imidazol-5-yl)methyl)-N^4-(5-cyclopropyl-1H-pyrazol-3-yl)-5-fluoropyrimidine-2,4-diamine], under setting [1], the Ki was < 50 nM.
In the case of `CN(Cc1cccc2[nH]ccc12)c1nccc(Nc2cc(C3CC3)[nH]n2)n1` [I-40, N^2-((1H-Indol-4-yl)methyl)-N^4-(5-cyclopropyl-1H-pyrazol-3-yl)-N^2-methylpyrimidine-2,4-diamine], the Ki under setting [1] was in the range of 50 to 250 nM.
With `C[C@H](c1cc(Nc2ccnc(NCc3ccc4[nH]cnc4c3Cl)n2)n[nH]1)C1CC1` [II-79, (S)-N^2-((4-chloro-1H-benzo[d]imidazol-5-yl)methyl)-N^4-(5-(1-cyclopropylethyl)-1H-pyrazol-3-yl)pyrimidine-2,4-diamine], under setting [2], the Ki is < 50 nM.
`Cc1cc2[nH]cnc2cc1CNc1nccc(Nc2cc(C3CC3)[nH]n2)n1` [I-30, N^4-(5-Cyclopropyl-1H-pyrazol-3-yl)-N^2-[(6-methyl-1H-benzimidazol-5-yl)methyl]pyrimidine-2,4-diamine]: the Ki under setting [1] was 250 to 1000 nM.
Still for that read-out and setting: in the case of `c1cc(CNc2nccc(Nc3cc(C4CCOC4)[nH]n3)n2)c2cc[nH]c2c1` (centres unmarked) [I-51, N^2-((1H-indol-4-yl)methyl)-N^4-(5-(tetrahydrofuran-3-yl)-1H-pyrazol-3-yl)pyrimidine-2,4-diamine] it was 50 to 250 nM; in that of `Fc1ccc(CNc2nccc(Nc3cc(C4CC4)[nH]n3)n2)c2cc[nH]c12` [I-47, N^4-(5-cyclopropyl-1H-pyrazol-3-yl)-N^2-((7-fluoro-1H-indol-4-yl)methyl)pyrimidine-2,4-diamine], 250 to 1000 nM.
For `C[C@H](Nc1nccc(Nc2cc(C3CC3)[nH]n2)n1)c1ccc2cc[nH]c2c1` [I-34, (S)—N^2-(1-(1H-indol-6-yl)ethyl)-N^4-(5-cyclopropyl-1H-pyrazol-3-yl)pyrimidine-2,4-diamine], the Ki under setting [1] was in the range of 250 to 1000 nM.
As for `Clc1c(CNc2nccc(Nc3cc(C4COC4)[nH]n3)n2)ccc2[nH]cnc12` [II-4, N^2-[(4-chloro-1H-benzimidazol-5-yl)methyl]-N^4-[5-(oxetan-3-yl)-1H-pyrazol-3-yl]pyrimidine-2,4-diamine, formic acid salt], under setting [2], the inhibition constant (Ki) was < 50 nM.
On to `Cn1ccc2cc(CNc3nccc(Nc4cc(C5CC5)[nH]n4)n3)ccc21` [I-33, N^4-(5-Cyclopropyl-1H-pyrazol-3-yl)-N^2-((1-methyl-1H-indol-5-yl)methyl)pyrimidine-2,4-diamine], for which the inhibition constant (Ki) under setting [1] fell in the range of 250 to 1000 nM.
Turning to `COC[C@@H](C)c1cc(Nc2ccnc(N(C)Cc3ccc4[nH]cnc4c3Cl)n2)n[nH]1` [II-80, (S)-N^2-((4-chloro-1H-benzo[d]imidazol-5-yl)methyl)-N^4-(5-(1-methoxypropan-2-yl)-1H-pyrazol-3-yl)-N^2-methylpyrimidine-2,4-diamine], the Ki under setting [2] was < 50 nM.
Consider `CN(Cc1cccc2[nH]ncc12)c1nccc(Nc2cc(C3CC3)[nH]n2)n1` [II-84, N^2-((1H-indazol-4-yl)methyl)-N^4-(5-cyclopropyl-1H-pyrazol-3-yl)-N^2-methylpyrimidine-2,4-diamine], for which, under setting [2], the inhibition constant (Ki) was < 50 nM.
Turning to `Cc1cc(Nc2cc(C3CC3)[nH]n2)nc(NCc2cc(F)cc3[nH]ccc23)n1` [I-89, N^4-(5-Cyclopropyl-1H-pyrazol-3-yl)-N^2-((6-fluoro-1H-indol-4-yl)methyl)-6-methylpyrimidine-2,4-diamine Formate], under setting [1], the inhibition constant (Ki) fell in the range of 250 to 1000 nM.
Same read-out and setting: for `FC1(F)C[C@H]1c1cc(Nc2ccnc(NCc3ccc4[nH]cnc4c3Cl)n2)n[nH]1` [I-74, (S)—N^2-((4-chloro-1H-benzo[d]imidazol-5-yl)methyl)-N^4-(5-(2,2-difluorocyclopropyl)-1H-pyrazol-3-yl)pyrimidine-2,4-diamine] the value was < 50 nM.
`CC[C@H](Nc1ncc(F)c(Nc2cc(C3CC3)[nH]n2)n1)c1ccc2[nH]cnc2c1` [I-101, N^2-[(1S)-1-(1H-benzimidazol-5-yl)propyl]-N^4-(5-cyclopropyl-1H-pyrazol-3-yl)-5-fluoro-pyrimidine-2,4-diamine]: under setting [1], the Ki fell in the range of 50 to 250 nM.
On the same count and under the same terms, for `FC1(F)C[C@@H]1c1cc(Nc2ccnc(NCc3ccc4[nH]cnc4c3Cl)n2)n[nH]1` [I-75, (R)—N^2-((4-chloro-1H-benzo[d]imidazol-5-yl)methyl)-N^4-(5-(2,2-difluorocyclopropyl)-1H-pyrazol-3-yl)pyrimidine-2,4-diamine] the value was < 50 nM; for `C[C@H](Nc1nccc(Nc2cc([C@@H]3C[C@@H]3F)[nH]n2)n1)c1ccc2[nH]ccc2c1` [I-64, N^2—((S)-1-(1H-indol-5-yl)ethyl)-N^4-(5-((1S,2S)-2-fluorocyclopropyl)-1H-pyrazol-3-yl)pyrimidine-2,4-diamine], 50 to 250 nM.
With `C[C@H](Nc1nccc(Nc2cc([C@H]3C[C@H]3F)[nH]n2)n1)c1ccc2[nH]ccc2c1` [I-65, N^2—((S)-1-(1H-indol-5-yl)ethyl)-N^4-(5-((1R,2R)-2-fluorocyclopropyl)-1H-pyrazol-3-yl)pyrimidine-2,4-diamine], the Ki under setting [1] was < 50 nM.
Turning to `C[C@H](Nc1nc(Nc2cc(C3CC3)[nH]n2)cc(C(F)(F)F)n1)c1ccc2[nH]ccc2c1` [I-18, (S)—N^2-(1-(1H-indol-5-yl)ethyl)-N^4-(5-cyclopropyl-1H-pyrazol-3-yl)-6-(trifluoromethyl) pyrimidine-2,4-diamine], the inhibition constant (Ki) under setting [1] lay within 50 to 250 nM.
`CCN(Cc1cc(F)cc2[nH]ncc12)c1ncc(F)c(Nc2cc(C3CC3)[nH]n2)n1` [II-85, N^4-(5-cyclopropyl-1H-pyrazol-3-yl)-N^2-ethyl-5-fluoro-N^2-((6-fluoro-1H-indazol-4-yl)methyl)pyrimidine-2,4-diamine]: the Ki under setting [2] was < 50 nM.
On the same count and under the same terms, in the case of `c1cncc(CN(Cc2cccc3[nH]ccc23)c2nccc(Nc3cc(C4CC4)[nH]n3)n2)c1` [II-10, N^4-(5-Cyclopropyl-1H-pyrazol-3-yl)-N^2-(1H-indol-4-ylmethyl)-N^2-(3-pyridylmethyl)pyrimidine-2,4-diamine] it was 50 to 250 nM; in that of `Fc1ccc2[nH]ncc2c1CNc1nccc(Nc2cc(C3CC3)[nH]n2)n1` [II-75, N^4-(5-cyclopropyl-1H-pyrazol-3-yl)-N^2-((5-fluoro-1H-indazol-4-yl)methyl)pyrimidine-2,4-diamine], < 50 nM.
As for `F[C@@H]1C[C@H]1c1cc(Nc2ccnc(NCc3cccc4[nH]ccc34)n2)n[nH]1` (racemic) [I-80, trans-N^2-((1H-indol-4-yl)methyl)-N^4-(5-(2-fluorocyclopropyl)-1H-pyrazol-3-yl)pyrimidine-2,4-diamine], the inhibitory constant (Ki) under setting [1] was < 50 nM.
Regarding `Fc1cc(CNc2nccc(Nc3cc([C@@H]4CC4(F)F)[nH]n3)n2)c2cn[nH]c2c1` [II-65, (S)-N^4-(5-(2,2-difluorocyclopropyl)-1H-pyrazol-3-yl)-N^2-((6-fluoro-1H-indazol-4-yl)methyl)pyrimidine-2,4-diamine], the inhibitory constant (Ki) under setting [2] is < 50 nM.
With `CN(Cc1cc2nc[nH]c2cc1F)c1nccc(Nc2cc(C3CC3)[nH]n2)n1` [II-113, N^2-((6-fluoro-1H-benzo[d]imidazol-5-yl)methyl)-N^4-(5-cyclopropyl-1H-pyrazol-3-yl)-N^2-methylpyrimidine-2,4-diamine], the Ki under setting [2] is < 50 nM.
Take `COc1n[nH]c2cccc(CN(C)c3nccc(Nc4cc(C5CC5)[nH]n4)n3)c12` [II-30, N^4-(5-cyclopropyl-1H-pyrazol-3-yl)-N^2-((3-methoxy-1H-indazol-4-yl)methyl)-N^2-methylpyrimidine-2,4-diamine]: the Ki was 50 to 250 nM.
